Results from US6803382B2, “Angiogenesis inhibitors and pharmaceutical and cosmetic use thereof” (Galderma Research & Development, S.N.C., priority 2001, dated 2004).

Assays:
[1] = target: T1, Human MetAP-2 (Homo sapiens, UniProt P50579); test: Inhibition of human MetAP-2 (recombinant enzyme, Met-Ala-Ser substrate); format: biochemical; conditions: recombinant MetAP-2, substrate Met-Ala-Ser 1 mM, 37° C., Hepes pH 7.4, 0.5 mM CoCl2
T1 construct: made in house
Description: By way of example, the biological activity of the compounds is evaluated by measuring their inhibitory activity on methionine aminopeptidase MetAP-2 (Li, X., Chang, Y-H. Biochem. Biophys. Res. Comm. 1996, 227, 152).
The biological activity is characterized in this system by determining the concentration of compound required to inhibit 50% of the enzymatic activity (IC50). The test protocol used is described in Example 13 of the present patent application.
a) Measurement of the Inhibition of Human MetAP-2
Recombinant MetAP-2 is obtained and purified according to the method described by Li and Chang (Li, X.; Chang, Y-H. Biochem. Biophys. Res. Comm. 1996, 227, 152).
The tests are carried out in buffer A (Hepes buffer, 10 mM, pH 7.4, 0.5 mM CoCl2 containing 10% glycerol) using the peptide Met-Ala-Ser as substrate (Km=0.7 mM).
a. The enzymatic activity is measured as follows: the substrate solution is added to a suitable amount of enzyme such that the final concentration is 1 mM, and the mixture is incubated at 37° C. for 10-30 minutes. The reaction is quenched by adding 100 mM EDTA solution or by heating in a boiling water bath for two minutes.
b. The N-terminal methionine released is quantified by measuring the absorbance at 450 nm (A450) by incubating for 30-60 minutes at 37° C. with the following coloured reagent: buffer B (Hepes buffer, 10 mM, pH 7.4) (Ben-Bassat A.; Bauer K.: Chang S. Y. et al., J. Bacteriol. 1987, 169, 751-757), containing 70 μg/mL of amino acid oxidase, 10 μg/mL of horseradish peroxidase and 1 mM of o-dianisidine. The activities are expressed as mmol of methionine produced, using the conversion factor of 1 mmol of methionine/mL=8.6A450
Determination of the IC50
The IC50 values are determined by incubating the enzyme and its substrate (using the experimental conditions described above) with increasing concentrations of inhibitor.
The control is 5-methoxy-4-[2-methyl-3-(3-methylbut-2-enyl)oxiranyl]-1-oxaspiro[2.5]octan-6-yl 4-methoxycinnamate described in the publication by Han et al., Bioorganic & Medicinal Chemistry Letters, 2000, 10, 39-43.

[2] = test system: Endothelial Cells Isolated from the Vein of Umbilical Cords; test: Inhibition of endothelial cell proliferation by DNA synthesis reinitiation (b-Fgf, tritiated thymidine); format: cell-based; conditions: b-Fgf-stimulated tritiated thymidine incorporation, 24 h at 37° C., serum free medium, IC50 determined graphically
Description: The anti-angiogenic activity of the compounds according to the invention may also be measured by means of their capacity to inhibit the proliferation of endothelial cells. This activity is determined in Example 13 of the present patent application.
b) Measurement of the Inhibition of the Proliferation in Endothelial Cells Isolated from the Vein of Umbilical Cords (Prepared at the Laboratory) by DNA Synthesis Reinitiation
The cells are seeded in complemented SFM medium (Gibco). When the cells reach the confluence, the growth is stopped by 2 washes in serum free medium and handing-over in serum free medium for 24 h. After trypsination, they are seeded in 48 wells plates: 50.000 cells per well in 500 μl.
The reinitiation of DNA synthesis is performed 6 hours after, in presence of 50 μg/ml b-Fgf by well with increasing amounts of inhibitor to be tested in the serum free medium and containing the tritiated thymidine (b-Fgf is prepared at the laboratory).
The cells are incubated 24 h at 37° C. and the radioactivity is measured with a Wallac counter. Each test is performed in duplicate and the result is the average of the counted number of cpms. The curve showing measured radioactivity function to increasing amount of inhibitors allows to determine graphically the value of IC50.

T1 sequence (P50579 whole entry): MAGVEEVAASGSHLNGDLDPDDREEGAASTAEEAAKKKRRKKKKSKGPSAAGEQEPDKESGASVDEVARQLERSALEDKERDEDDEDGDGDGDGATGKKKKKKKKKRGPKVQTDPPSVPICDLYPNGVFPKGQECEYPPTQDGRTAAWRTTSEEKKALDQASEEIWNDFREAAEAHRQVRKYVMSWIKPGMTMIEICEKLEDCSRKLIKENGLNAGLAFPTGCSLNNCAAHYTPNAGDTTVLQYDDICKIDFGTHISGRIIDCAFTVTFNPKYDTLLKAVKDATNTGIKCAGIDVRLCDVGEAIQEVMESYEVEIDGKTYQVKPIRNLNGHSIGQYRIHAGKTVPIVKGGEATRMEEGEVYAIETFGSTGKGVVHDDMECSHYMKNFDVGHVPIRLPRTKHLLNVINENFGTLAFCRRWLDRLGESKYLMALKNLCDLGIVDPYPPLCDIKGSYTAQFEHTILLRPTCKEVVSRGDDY

SMILES | IC50 [1] [nM] | IC50 [2] [nM] | IC50 ([2]; Endothelial cell) [nM]
COc1ccc(C=CC(=O)OC2CCC3(CO3)C(C3(C)OC3CC=C(C)C)C2OC)cc1 (centres unmarked) [Control, 5-methoxy-4-[2-methyl-3-(3-methylbut-2-enyl)oxiranyl]-1-oxaspiro[2.5]octan-6-yl 4-methoxycinnamate] | 35 | 10 | 
COc1ccc(/C=C/C(=O)O[C@@H]2CC[C@]3(CO3)[C@@H](/C(C)=C/CCC(C)C)[C@@H]2OC)cc1 [Example 2] | 15 |  | 1
CO[C@@H]1[C@H](OC(=O)/C=C/C=C/C=C/C=C/C(=O)O)CC[C@]2(CO2)[C@H]1[C@@]1(C)O[C@@H]1CC=C(C)C [Fumagillin] | 10 |  | 
